From patent US20110236456A1, “IMPLANTABLE DEVICE FOR THE DELIVERY OF HISTRELIN AND METHODS OF USE THEREOF” (Endo Pharmaceuticals Solutions Inc., priority 2008, published 2011)

What was measured:
[1] = In vitro elution of histrelin from HP-60D-20 polyurethane implant (Example 1); format: physicochemical; conditions: HP-60D-20 implant, approx. 37° C.
Protocol: HP-60D-20 is extruded to tubes with thickness of 0.30 mm with inside diameter of 1.75 mm. The tubes are then cut into 25 mm in length. One side of the tube is sealed with heat using a heat sealer. The sealing time is less than one minute. Four pellets of histrelin acetate are loaded into the tube. Each pellet weighs approximately 13.5 mg for a total of 54 mg. Each pellet is comprised of a mixture of 98% histrelin and 2% stearic acid. The second end open of the tube is sealed with heat in the same way as for the first end. The loaded implant is then conditioned and primed. The conditioning takes place at room temperature in a 0.9% saline solution for one day. Upon completion of the conditioning, the implant undergoes priming. The priming takes place at room temperatures in a 1.8% saline solution for one day. Each implant is tested in vitro in a medium selected to mimic the pH found in the human body. The temperature of the selected medium was kept at approximately 37° C. during the testing. The release rates are shown on FIG. 4 and Table 2.

[2] = Release rates of histrelin from Tecophilic, Tecoflex and Carbothane polyurethane implants (Example 3); format: physicochemical; conditions: for Release rate normalized to surface area of the implant: 2% SA, 50 mg API
Description: Tables 2A-C show release rates of histrelin from three different classes of polyurethane compounds (Tecophilic®, Tecoflex® and Carbothane®). The release rates have been normalized to surface area of the implant, thereby adjusting for slight differences in the size of the various implantable devices. Histrelin is very soluble in water. Typically, a Log P value of greater than about 2.0 is considered to be not readily soluble in aqueous solution. The polyurethanes were selected to have varying affinities for water soluble active agents and varying flexibility (as indicated by the variation in flex modulus). […] Polyurethanes are available or can be prepared, for example, with a range of EWCs or flex moduli (Table 2). Tables 2A-C show normalized release rates for various active ingredients from polyurethane compounds. Tables 2D-F show the non-normalized release rates for the same active ingredients, together with implant composition.

CCNC(=O)[C@@H]1CCCN1C(=O)[C@H](CCCNC(=N)N)NC(=O)[C@H](CC(C)C)NC(=O)[C@@H](Cc1cn(Cc2ccccc2)cn1)NC(=O)[C@H](Cc1ccc(O)cc1)NC(=O)[C@H](CO)NC(=O)[C@H](Cc1c[nH]c2ccccc12)NC(=O)[C@H](Cc1cnc[nH]1)NC(=O)[C@@H]1CCC(=O)N1 [Histrelin Acetate, Histrelin acetate]
Histrelin elution rate ([1]; week 1 of elution): 451.733 µg/day | Histrelin elution rate ([1]; week 2 of elution): 582.666 µg/day | Histrelin elution rate ([1]; week 3 of elution): 395.9 µg/day | Histrelin elution rate ([1]; week 4 of elution): 310.29 µg/day | Histrelin elution rate ([1]; week 5 of elution): 264.92 µg/day | Histrelin elution rate ([1]; week 6 of elution): 247.17 µg/day | Histrelin elution rate ([1]; week 7 of elution): 215.93 µg/day | Histrelin elution rate ([1]; week 8 of elution): 201.78 µg/day | Histrelin elution rate ([1]; week 9 of elution): 183.22 µg/day | Histrelin elution rate ([1]; week 10 of elution): 174.99 µg/day | Histrelin elution rate ([1]; week 11 of elution): 167.72 µg/day | Histrelin elution rate ([1]; week 12 of elution): 158.37 µg/day | Histrelin elution rate ([1]; week 13 of elution): 153.95 µg/day | Histrelin elution rate ([1]; week 14 of elution): 146.46 µg/day | Histrelin elution rate ([1]; week 15 of elution): 139.83 µg/day | Histrelin elution rate ([1]; week 16 of elution): 129.6 µg/day | Histrelin elution rate ([1]; week 17 of elution): 124.46 µg/day | Histrelin elution rate ([1]; week 18 of elution): 118.12 µg/day | Histrelin elution rate ([1]; week 19 of elution): 120.35 µg/day | Release rate normalized to surface area of the implant ([2]; Carbothane PC-3595A, F.M.: 4,500): 0.2 μg/day/cm^2 | Non-normalized release rate ([2]; Carbothane PC-3595A, F.M.: 4,500, ID 1.85 mm, wall 0.20 mm, L 25.25 mm, 1.625 cm^2): 0.4 µg/day | Release rate normalized to surface area of the implant ([2]; Tecoflex EG 100A, F.M.: 10,000): 0.3 μg/day/cm^2 | Non-normalized release rate ([2]; Tecoflex EG 100A, F.M.: 10,000, ID 1.85 mm, wall 0.20 mm, L 25.56 mm, 1.645 cm^2): 0.5 µg/day | Release rate normalized to surface area of the implant ([2]; Tecophilic HP-60D-20, 15% EWC): 93 μg/day/cm^2 | Non-normalized release rate ([2]; Tecophilic HP-60D-20, 15% EWC, ID 1.80 mm, wall 0.30 mm, L 24.5 mm, 1.616 cm^2): 150 µg/day | Release rate normalized to surface area of the implant ([2]; Tecophilic HP-60D-35, 24% EWC): 248 μg/day/cm^2 | Non-normalized release rate ([2]; Tecophilic HP-60D-35, 24% EWC, ID 1.80 mm, wall 0.30 mm, L 24.5 mm, 1.616 cm^2): 400 µg/day | Release rate normalized to surface area of the implant ([2]; Tecophilic HP-60D-60, 31% EWC): 309 μg/day/cm^2 | Non-normalized release rate ([2]; Tecophilic HP-60D-60, 31% EWC, ID 1.80 mm, wall 0.30 mm, L 24.5 mm, 1.616 cm^2): 500 µg/day
